Source: patent publication US8252822B2, “Heterocyclic compounds and uses as anticancer agents” (Acea Biosciences, Inc., priority 2007, dated 2012)
Read-outs that look alike come from different tables or passages of the source.

Key:
ST30 = assay: RT-CES cell proliferation inhibition, ST30; format: cell-based; settings: Homo sapiens
Description: The biological activity of compounds disclosed herein was monitored and profiled using the Real-Time Cell Electronic Sensing (RT-CES®) system from ACEA Biosciences, Inc. The RT-CES system utilizes cell-substrate impedance technology to monitor cellular behavior inside tissue culture wells in a microtiter plate format. The technology features in the integration of molecular and cell biology with microelectronics and is based on the electronic detection of biological assay process. The details of this cell electronic sensing technology and associated devices, systems and methods of use as described in U.S. provisional application No. 60/379,749, filed on Jul. […]
For measurement of cell-substrate or cell-electrode impedance using RT-CES technology, microelectrodes having appropriate geometries are fabricated onto the bottom surfaces of microtiter plate or similar device, facing into the wells. […] When there are changes to the biological status of the cells analogue electronic readout signals are measured automatically and in real time, and are converted to digital signals for processing and for analysis. In a RT-CES system, a cell index (arbitrary representation of change in impedance) is automatically derived and provided based on measured electrode impedance values. […]
To quantify cell status based on the measured cell-electrode impedance, a parameter termed Cell Index is derived. […]

[1] = system: murine Lewis lung cancer (LLC); assay: Anti-tumor activity against LLC mice model; format: in vivo, C57 BL/6 mice; settings: 40 mg/kg; for Tumor Weight / Inhibition Rate (%): LLC, 12 days; for Tumor Weight: qod (Table 14); for Inhibition Rate (%): qod (Table 14; text qd); for Body Weight (g) Start: mouse, in vivo
Method: ACEA100160 (2-(4-ethoxyphenyl)amino-4-(6-methylimidazo[1,2-a]pyrimidin-3-yl)thiazole) and ACEA 100162 (2-(4-ethoxyphenyl)amino-4-(6-methylimidazo[2,1-b]thiazol-5-yl)thiazole) are prepared at concentration of 8 mg/ml in solution containing 20% HP-beta-CD dextrose (D5W). The solvent HP-beta-CD solution is used as a vehicle negative control.
LLC: murine Lewis lung cancer cell line.
LLC cells were cultured in DMEM medium with 10% FBS to obtain the necessary cell number for injection subcutaneously (10^7 cells).
Under a sterilized condition, sacrifice the C57 BL/6 murine LLC bearing mice, separate tumor and put it into NS. Chop the tumor into fine pieces with sterilized scissors and then homogenate into cell suspension. Inject 0.2 ml cell suspension (10^6 cells) subcutaneously into the left flank on C57 BL/6 mice. On the first treatment day before iv or ip, implanted animals are randomly divided into seven groups as following. The drugs were administrated in the schedule of Table 13 respectively. The solvent HP-beta-CD solution is used as a vehicle negative control. Observe clinical signs at least daily.
Tumor weight was recorded. The tumor inhibitory rate was calculated as follows: inhibitory rate=1-Wt/W0, where Wt is the average weight of each drug treatment group and W0 is the average weight of negative control group. Results are given as mean±SD values from n animals. Comparisons between groups were made with Student's two-tailed t test and a P<0.05 was considered significant.

Q: What does the source list for `Br.CCOc1ccc(Nc2nc(-c3c(C)nc4sccn34)cs2)cc1` [Compound 27, 2-(4-ethoxyphenyl)amino-4-(6-methylimidazo[2,1-b]thiazol-5-yl)thiazole]?
A: IC50 (ST30; ST30, 24 hrs, read-out: IC50 (24 hr)): 38.8 nM; IC50 (ST30; ST30, 48 hrs, read-out: IC50 (48 hr)): 42.4 nM; Tumor Weight ([1]; IP): 0.70 ± 0.46 g; Inhibition Rate (%) ([1]; IP, listed as 162, 40 mg/kg): 39.2%; Inhibition Rate (%) ([1]; IP, listed as ACEA100162, 40 mg/kg): 39.15%; Tumor Weight ([1]; IV): 0.91 ± 0.18 g; Inhibition Rate (%) ([1]; IV): 25.5%; Body Weight (g) Start ([1]; ip): 19.0 ± 0.8 g; Body Weight (g) Start ([1]; iv): 18.5 ± 1.3 g
